This is an account of results in PubChem BioAssay AID493003 (Sanford-Burnham Center for Chemical Genomics, 2010).

The source made the active and inactive calls. No rule for the calls is given here.

The subject of the test is S. cerevisiae tim10-1 mutant growth, luminescence. Description: growth inhibitors of tim10-1 mutant yeast, dose response, luminescence, S. cerevisiae, uHTS hits (AID 493003).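 Also: yeast growth measured after about 22 hours at 25 °C.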
Take `N/C(CCS(=O)(=O)c1ccc(Cl)cc1)=N\OC(=O)c1ccccc1C(F)(F)F`: the IC50 (usually the concentration at which inhibition is half-maximal) was 37.5 µM.

`CN(c1ccccc1)C1CCCCC1NS(=O)(=O)c1ccc(Cl)cc1` (centres undefined): the IC50 is 65.4 µM.

As to `C[C@@]12CCC=C[C@H]1[C@H](c1ccc3ccccc3c1)N(Cc1ccccc1)C2=O`, the IC50 was 22.2 µM.

Take `CCOc1ccccc1N1C(=O)CC(Sc2n[nH]c(-c3ccccc3)n2)C1=O` (centres undefined): the IC50 was 10.6 µM.

`N/C(Cc1ccc(Cl)cc1Cl)=N\OC(=O)Cc1ccc(Cl)cc1`: the IC50 is 1.41 µM.

`O=C(c1ccc2nc(N3CCOCC3)sc2c1)N1CCC(Cc2ccccc2)CC1`: the IC50 was 16.6 µM.

In the case of `COCCNC(=S)N1CCN(c2nc(-c3ccccc3)cs2)CC1`, the IC50 is > 100 µM (inactive).

Consider `Cc1ccc(OCC(=O)O/N=C(\N)Cc2ccc([N+](=O)[O-])cc2)cc1C`, for which the IC50 was 25.1 µM.

For `COc1ccc(-c2nn(-c3ccccc3)cc2/C=C(\CC(=O)O)c2nc3ccccc3s2)cc1OC`, the IC50 was 60.8 µM.

With `CCN(CC)C1CC(=O)N(c2cccc(Cl)c2)C1=O` (centres undefined), the IC50 is 9.25 µM.

With `CC(C)(C)c1ccc(-c2cc(-c3ccccc3O)[nH]n2)cc1`, the IC50 is 38.9 µM.

`N/C(=N\OC(=O)c1cccc2ccccc12)c1ccncc1`: the IC50 was 40.8 µM.

In the case of `O=C(CSc1nc2cc(Cl)ccc2s1)c1ccco1`, the IC50 was 50.6 µM.

Take `Cc1[nH]nc2c1-c1nc3ccccc3nc1C(C)(C)C2`: the IC50 was 23.8 µM.

For `COc1ccc(C2NC(=S)NC3=C2CCc2cc(OC)ccc23)cc1` (centres undefined), the IC50 was 36.7 µM.

As to `COc1cccc(-c2nn3c(-c4ccccn4)nnc3s2)c1`, the IC50 was 33.4 µM.

Turning to `COc1ccc(C)c2sc(N3CCCC3)nc12`, the IC50 was 21.7 µM.

`COc1ccc(S(=O)(=O)Nc2ccc(O)c(Sc3nc4ccccc4s3)c2)cc1`: the IC50 is 34.1 µM.

For the compound `COC(=O)c1ccccc1NC(=S)NC(=O)C1CCCCC1`, the IC50 was 42.5 µM.

In the case of `N#CC(C#N)=c1ccc2c(c1)NC1(CCCCC1)N=2`, the IC50 is 30.5 µM.

As to `Cc1nc2c(-c3ccccc3)cnn2c(N)c1-c1ccccc1`, the IC50 is 24 µM.

For `Nc1nc(N)c(C=Nc2ccc(Br)cc2)c(Nc2ccc(Br)cc2)n1`, the IC50 is 16.8 µM.

Regarding `CCn1c(SCc2c(F)cccc2Cl)nnc1-c1ccco1`, the IC50 is 24.3 µM.

Regarding `N#Cc1c(N)nc(SCC(=O)C23CC4CC(CC(C4)C2)C3)c(C#N)c1-c1ccc(Cl)cc1`, the IC50 is 41.6 µM.

In the case of `N/C(=N\OC(=O)CCCc1ccccc1)c1ccccc1`, the IC50 is 19.9 µM.

`COC(C/C=C/C(=O)COCc1ccccc1)OC`: the IC50 is 37.2 µM.

Regarding `Cc1[nH]n(-c2ccccc2)c(=O)c1C(c1ccccc1[N+](=O)[O-])C(C#N)C#N` (centres undefined), the IC50 is 18.2 µM.

`CCN1CCN(c2cc(N3CCc4ccccc4C3)c(F)cc2[N+](=O)[O-])CC1`: the IC50 was 29 µM.

Turning to `Cc1cc(Nc2nc(Cl)c(Cl)cc2Cl)n(-c2ccccc2)n1`, the IC50 was 27.1 µM.

Regarding `CC/C(=N\NC(=S)Nc1cc(C)ccc1C)c1ccc(OC(F)F)cc1`, the IC50 is 34.9 µM.

Regarding `Cc1c(C(=O)N2CCc3ccccc3C2)sc2nc(-c3ccccc3)cn12`, the IC50 was 37.2 µM.

As for `Clc1cccc(CN2CCc3c([nH]c4ccccc34)C2)c1`, the 50% inhibitory concentration (IC50) was 30.7 µM.

For `O=C(Nc1ccc(OCC(F)(F)C(F)F)c(C(F)(F)F)c1)c1ccc(Cl)cc1`, the IC50 was 52.8 µM.

`CC(/C=N/Nc1nc(C)cc(C)n1)=C\c1ccc(C(C)C)cc1`: the IC50 was 39.1 µM.

On to `S=c1[nH]nc(CSc2nc3ccccc3s2)n1C1CCCCC1`, for which the IC50 was > 100 µM (inactive).

For `O=C(/C=C/c1ccccc1)CC(O)(c1ccccc1)C(F)(F)F` (centres undefined), the IC50 is 24.2 µM.

As to `Cc1ccc(S(=O)(=O)c2nc(S(C)(=O)=O)sc2N2CCCCC2C)cc1` (centres undefined), the IC50 was 7.08 µM.

Turning to `FC(F)C(F)(F)C(F)(F)C(F)(F)c1cc(-c2ccccc2)n[nH]1`, the IC50 is 15.2 µM.

In the case of `CC(NC(=O)c1cccc(Cl)c1)C1CC2CCC1C2` (centres undefined), the IC50 is 42.3 µM.

Regarding `O=C1C=C(NC(=O)Nc2ccc(Cl)c(Cl)c2)CCC1`, the half-maximal inhibitory concentration (IC50) is 95.6 µM.

As to `COc1ccc(-c2cc(C3CCN(C(=O)OC(C)(C)C)CC3)[nH]n2)cc1`, the IC50 was 51.2 µM.

Consider `Cc1nn(Cc2ccc(Cl)cc2)c(C)c1NC(=O)c1noc2c1CCCCC2`, for which the IC50 was 23.5 µM.

On to `Oc1c(Cl)cc(Cl)cc1/C=C/c1ccc2cccc(O)c2n1`, for which the IC50 is 42.6 µM.

As for `Cc1ccccc1NC(=S)N(Cc1ccccn1)Cc1ccccc1Cl`, the IC50 is 20.9 µM.

Consider `O=C(/C=C/c1ccc2c(c1)OCCCO2)c1ccccc1O`, for which the IC50 was 12.2 µM.

Regarding `COc1cccc(N2C(C(C)=O)=NN(c3ccccc3)C2c2ccc(N3CCOCC3)cc2)c1` (centres undefined), the IC50 was > 100 µM (inactive).

Take `CC(=O)SC1CC(=O)N(c2ccc(C(C)(C)C)cc2)C1=O` (centres undefined): the IC50 was 38.8 µM.

Consider `O=[N+]([O-])c1ccc(Sc2cccc3cccnc23)c([N+](=O)[O-])c1`, for which the IC50 was 78.7 µM.

Take `S=C(NCCCc1ccccc1)Nc1ccc(Cl)cc1`: the IC50 is 11.4 µM.

With `COc1cccc(/C=N/n2c(C3CCCCC3)n[nH]c2=S)c1O`, the IC50 is 32.3 µM.

Take `Cc1nn2c(c1-c1ccc(Cl)cc1)N=C(c1ccco1)CC2c1ccccc1` (centres undefined): the IC50 was 23.2 µM.

For `COc1ccc2cc3cc(C(=O)NCCN4CCN(Cc5ccccc5)CC4)oc3nc2c1`, the IC50 is 27.9 µM.

`C=CCc1ccc(O)c(-c2cc(CC=C)ccc2O)c1`: the IC50 was 68.3 µM.

`CCOC(=O)c1ccc(N2C(=O)CC(N3CCC(C(=O)OCC)CC3)C2=O)cc1` (centres undefined): the IC50 was 15.1 µM.

`COC(=O)c1c(N2C(=O)CC(Sc3ccccc3C(=O)O)C2=O)sc2c1CCCC2` (centres undefined): the 50% inhibitory concentration (IC50) was 12.2 µM.

As for `CC1CCCCN1S(=O)(=O)c1ccc2c(c1)CCN2C(=O)C1CCC1` (centres undefined), the IC50 was 61.7 µM.

As for `C/C(=N\NC(=O)c1cc(-c2cccs2)nc2ccccc12)c1ccccn1`, the IC50 is 28.7 µM.

As to `Cc1cc(N2C3CCC2CC(O)(c2ccc(F)cc2)C3)nc(-c2ccccc2)n1` (centres undefined), the IC50 is 25.4 µM.

For the compound `CCC(CO)Nc1nc2ccc(Cl)cc2c2ccccc12` (centres undefined), the IC50 was 17 µM.

As to `C=CCc1c(C)nc(-c2ccccc2)nc1N/N=C/c1ccccc1`, the IC50 is 26.2 µM.

In the case of `OCCN1CCN(C2Cc3cc(Cl)ccc3Sc3ccc(Cl)cc32)CC1` (centres undefined) (tested in a mixture with another compound), the IC50 is 20.4 µM.

Turning to `Cc1cc(C)c(CSc2ncc(-c3ccc([N+](=O)[O-])cc3)[nH]2)c(C)c1`, the IC50 is 12.9 µM.

As for `CNC(=O)c1nnsc1S(=O)(=O)c1ccc(Cl)cc1`, the IC50 was 16.4 µM.

As to `CCSc1ccc2c(c1)N(CCCN1CCN(C)CC1)c1ccccc1S2`, the IC50 is 24.9 µM.

Consider `Cc1ccc(C(=O)O/N=C(\N)c2ccccn2)c(C)c1`, for which the IC50 was 17 µM.

Consider `CC(C)(O)[C@H]1O[C@H]2CC[C@@]3(C)[C@@](O)(CC[C@H]4Cc5c([nH]c6ccccc56)[C@@]43C)C2=CC1=O`, for which the IC50 was 33.5 µM.

For the compound `N#C/C(=C\c1ccccc1)C(=O)Nc1cc(S(=O)(=O)N2CCOCC2)ccc1N1CCCC1`, the IC50 is 31.3 µM.

As for `NC(=NCCCCCCN=C(N)/N=C(\N)Nc1ccc(Cl)cc1)/N=C(\N)Nc1ccc(Cl)cc1`, the IC50 is 12.1 µM.

Turning to `S=C(NCCSCc1ccc(Cl)cc1)Nc1ccccc1`, the IC50 is 19.5 µM.

As for `CC(C)Nc1nnc(Sc2ccc(Cl)cc2[N+](=O)[O-])s1`, the IC50 is 8.34 µM.

For `C=CCNc1nc(-c2ccccn2)nnc1-c1ccccc1`, the IC50 is 29.3 µM.

With `Clc1ccccc1OCc1nnc(-c2ccccc2Br)o1`, the IC50 was 27.9 µM.

As for `Cn1c(NCc2c(O)ccc3ccccc23)nc2ccccc21`, the IC50 was > 100 µM (inactive).

For the compound `Cc1sc(NC(=O)c2ccco2)c(C(c2cccnc2)N2CCCC2)c1C` (centres undefined), the IC50 is 17.2 µM.

`CCN(CC)CCN(C(=O)c1ccc2c(c1)CCCC2)c1nc2ccc(OC)cc2s1`: the IC50 was 22 µM.

Turning to `CCOC(=O)N1CCN(C(=O)c2ccc(CSc3ccc(Cl)cc3)cc2)CC1`, the IC50 is 74.1 µM.

In the case of `CCCCn1nc(NC(=O)c2cccs2)c2cc3ccccc3nc21`, the IC50 was 73.9 µM.

`Nc1ccc2oc(-c3cccc(Br)c3)nc2c1`: the IC50 was 28.3 µM.

Consider `CCn1nccc1C(=O)Nc1ccc(Cl)c(Cl)c1`, for which the IC50 is 24.3 µM.

`Cc1cc(C)cc(N2C(=O)CC(Sc3nnnn3-c3ccccc3)C2=O)c1` (centres undefined): the IC50 is 13.6 µM.

For the compound `Cc1sc2ncnc(N3CCN(CCOc4ccc(Cl)cc4)CC3)c2c1C`, the IC50 is 38.2 µM.

`CCCCN(CC)CCCNC(=O)c1cc2cc3ccc(OC)cc3nc2o1`: the IC50 was 17.2 µM.

In the case of `O=C(Nc1ccon1)c1cc2c(s1)CCCCCC2`, the half-maximal inhibitory concentration (IC50) is 39.2 µM.

As for `COc1ccc(C(=O)O/N=C(\N)c2ccc(Br)cc2)cc1`, the IC50 was 11.9 µM.

Consider `Cc1sc2ncnc(Oc3ccc(-n4ccnc4)cc3)c2c1C`, for which the IC50 was 46 µM.

In the case of `CCNc1ccc(Br)cc(C(=O)/C=C/c2c(Cl)cccc2Cl)c1=O`, the IC50 is 22.1 µM.

Regarding `CC/C(=N\Nc1ccccc1[N+](=O)[O-])c1ccc(O)cc1`, the IC50 is 20 µM.

Consider `CC(C)(C)NC(=O)NC(=O)COC(=O)CCC1CCCCC1`, for which the IC50 is 69 µM.

For the compound `COc1ccc(Br)cc1[C@H]1[C@@H]2C=CCC[C@@]2(C)C(=O)N1Cc1ccccc1`, the IC50 was 12.1 µM.

Turning to `C[C@@H]1CC=C[C@H]2[C@H]1C(=O)N(Cc1ccccc1)[C@H]2c1ccc(-c2ccoc2)cc1F`, the IC50 was 12.4 µM.

Turning to `CSc1ccccc1OCc1cc(C(=O)N2CCC(Oc3cccnc3)CC2)no1`, the IC50 is 39.9 µM.

Consider `Cc1cc(N/N=C/c2ccc(Cl)cc2)nc(NCc2ccccc2)n1`, for which the IC50 was 36.6 µM.

With `CC(CNC(=O)COc1ccccc1)OC(=O)Nc1ccc(Cl)c(Cl)c1` (centres undefined), the IC50 was 20.2 µM.

As to `FC(F)(F)c1ccc(NC(=S)NC2CCCCC2)cc1`, the IC50 was 27.7 µM.

`COc1ccc(-n2cc(-c3ccccc3)c3c(=S)nc[nH]c32)cc1`: the IC50 was 13 µM.

As to `N/C(=N\OC(=O)CCC1CCCC1)c1ccc([N+](=O)[O-])cc1`, the IC50 was 16.9 µM.

Turning to `COC(=O)N1C(=O)[C@@](c2ccccc2)(C2CCCCC2)N1C(=O)OC`, the IC50 was 61.7 µM.

As to `CC(C)(C)c1cc(C(=O)N/N=C/c2ccc(F)cc2)n(-c2ccccc2)n1`, the IC50 was 36.4 µM.

With `O=c1c2ccccc2nc(/C=C/c2ccc([N+](=O)[O-])o2)n1CCCO`, the IC50 is 4.53 µM.
